These results are taken from article PMC10786037, “Autoinhibition in the Signal Transducer CIN85 Modulates B Cell Activation” (Journal of the American Chemical Society, 2023).

Test [1] concerns the target T1, CIN85 SH3C domain (Homo sapiens, UniProt Q96B97).
T1 construct: His7 (with TEV protease cleavage site) (N, cleaved yes); made in house; host or cells: Escherichia coli BL21(DE3)
T1 sequence (Q96B97 267-328 limits assumed): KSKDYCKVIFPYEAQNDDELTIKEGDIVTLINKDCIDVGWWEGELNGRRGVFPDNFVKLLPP
Description: NMR titration (chemical shift perturbations) of 15N-labeled SH3C domain with synthetic CIN85-PRM1 peptides. The format is binding. The note with it: for difference in binding energy compared to wild-type peptide (ΔΔG, net energetic contribution of the mutated residue): calculated from the KD's of mutant and wild-type peptide to SH3C; for fold increase of KD compared to wild-type peptide: mutant peptide binding to SH3C domain. The source says:
(§1) The recognition of PRM by SH3 domains typically depends on the presence of positively charged residues, such as arginines at the motif’s N- or C-terminus, which often form cation−π interactions with conserved tryptophan residues in the SH3 binding interface.[30] […] We therefore used CIN85-PRM1 mutant peptide binding to the SH3C domain to determine the role of both arginines (R227 and R229) in this interaction. […] Because we knew that this interaction was in part driven by cation−π interactions, we anticipated a net energetic contribution on the order of −12 ± 6 kJ/mol if such an interaction would be disturbed by the mutation.[32] […] In the context of the whole protein, local concentration and/or cooperative effects could increase the actual strength of this interaction considerably. The residue S230 is adjacent to R229 and a known site for activation-induced phosphorylation in CIN85[33],[34] (see also Figure S4). To investigate the effect of S230s involvement in this interaction, we incorporated a phosphoserine (pS230), a S230D, and a S230A mutation into the synthetic peptide.
(§2) with 1000 resampled datasets with replacement. After obtaining the dissociation constant, the
(§3) Gibbs free energy of this interaction was calculated using the following relation: […]
(§4) Their difference in free energy can then be calculated as follows: […]
(§5) The value of ∆∆G here has the meaning of the stability contribution or net energetic contribution
(§6) of the residue that was mutated. […]

For test [2], the target named is T2, CIN85 SH3A domain (Homo sapiens, UniProt Q96B97).
T2 construct: GST (with thrombin cleavage site) (N); made in house; host or cells: Escherichia coli BL21(DE3)
T2 sequence (Q96B97 1-58 limits assumed): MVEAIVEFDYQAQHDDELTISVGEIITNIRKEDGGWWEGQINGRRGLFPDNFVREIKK
Description: NMR titration (chemical shift perturbations) of 15N-labeled SH3A domain with synthetic CIN85-PRM1 peptide. In kind it is binding. The note with it: isolated SH3A domain, CSP of 15N-labeled domain, error of fitted KD from bootstrap resampling, read-out: KD (mM), binary SH3:peptide interaction.
Description: (§7) We further used NMR titrations to assess the interaction of CIN85-PRM1 with isolated SH3 domains of CIN85, observing chemical shift perturbations (CSP) in the ^15N-labeled SH3 domains upon titration with a synthetic 14-residue peptide of the sequence ^219FKDKPIKLRPRSIE^232 (see Figure S2). […] We mapped the CSP onto the first model of the NMR structure of SH3C (PDB: 2k9g) in Figure 2A. Binding to the CIN85-PRM1 peptide occurs through the conserved binding site, involving the RT-loop (residues 278–292), the N-Src-loop (residues 300–307), and also the 3_10-helix (residues 320–322) of SH3C (see Figure 2B). […]
(§8) with 1000 resampled datasets with replacement. After obtaining the dissociation constant, the Gibbs free energy of this interaction was calculated using the following relation: […]
(§9) with R as the ideal gas constant (8.314 Jmol−1K−1) and T as the absolute temperature in K. This quantity is useful when comparing two similar interactions that differ in their KD, i.e. variants of the same peptide that have a single-point mutation or a post-translational modification (PTM) and […]
as §4
(§10) Determination of rotational correlation times and translational diffusion coefficients Residue-specific cross-correlated relaxation rates were determined at 800 MHz via the 2D TRACT experiment1, 12-13,using variable delays from 1-190 ms. […]

In test [3] the target is T3, CIN85 SH3B domain (Homo sapiens, UniProt Q96B97).
T3 construct: GST (with thrombin cleavage site) (N); made in house; host or cells: Escherichia coli BL21(DE3)
T3 sequence (Q96B97 98-157 limits assumed): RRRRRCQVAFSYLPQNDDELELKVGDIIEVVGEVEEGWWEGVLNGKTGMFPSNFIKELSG
Briefly: NMR titration (chemical shift perturbations) of 15N-labeled SH3B domain with synthetic CIN85-PRM1 peptide. The format is binding. The note with it: isolated SH3B domain, CSP of 15N-labeled domain, error of fitted KD from bootstrap resampling, read-out: KD (mM), binary SH3:peptide interaction.
Description: as §7, §8, §9, §4, §10

Test [4] relates to CIN85 SH3C domain. Briefly: NMR titration (chemical shift perturbations) of 15N-labeled SH3C domain with synthetic CIN85-PRM1 peptides. The format is binding, human. The note with it: same peptide.
Description: as §1, §2, §3, §4, §5, §6

In test [5] the target is T4, CIN85 SH3C domain (human, UniProt Q96B97-1 262-333).
T4 construct: the NMR structure PDB 2k9g of SH3C was used to map the shifts; 15N-labelled for NMR; The limits of PDB 2k9g may differ from those of the construct; also called C-terminal SH3 domain
T4 sequence: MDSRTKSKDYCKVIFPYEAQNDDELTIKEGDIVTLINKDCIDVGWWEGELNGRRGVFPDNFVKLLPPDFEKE
Description: NMR titration; 15N-labelled isolated SH3 domain titrated with synthetic 14-residue peptide; chemical shift perturbations; KD fitted, error by bootstrap resampling. The note with it: both partners purified.

Test [6] concerns the target T5, CIN85 SH3B domain (human).
T5 chain: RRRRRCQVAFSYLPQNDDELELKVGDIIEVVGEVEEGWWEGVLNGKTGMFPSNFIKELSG
The description is as above. To be noted: both partners purified.

The target of test [7] is T6, CIN85 SH3A domain (human).
T6 chain: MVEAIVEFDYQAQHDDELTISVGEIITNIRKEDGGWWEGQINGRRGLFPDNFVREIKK
Described as above. The note with it: both partners purified.

Where no end group is shown, it is not given here. [ ]: non-standard residue; d: D form. pS = N[C@@H](COP(=O)(O)O)C(=O)O Where only a bound is given, the exact number is not on record here.

Regarding “Ac-FKDKPIKLAPRSIE-NH2 [^219FKDKPIKLAPRSIE^232]”, in test [1], the “difference in binding energy compared to wild-type peptide (ΔΔG, net energetic contribution of the mutated residue)” value is 0.784 ± 0.0478 kcal/mol and the “fold increase of KD compared to wild-type peptide” value was determined as 4 fold.
As for “Ac-FKDKPIKLAPASIE-NH2 [^219FKDKPIKLAPASIE^232]”, the Kd in test [1] (isolated SH3C domain, NMR titration, CSP of 15N-labeled domain, error of fitted KD from bootstrap resampling, read-out: KD (mM), binary SH3:peptide interaction) is more than 2.45 mM.
In the case of “Ac-FKDKPIKLRPASIE-NH2 [^219FKDKPIKLRPASIE^232]”, in test [1], the “difference in binding energy compared to wild-type peptide (ΔΔG, net energetic contribution of the mutated residue)” value was 1.51 ± 0.239 kcal/mol and the “fold increase of KD compared to wild-type peptide” value is on record as 12 fold.
For “Ac-FKDKPIKLRPRSIE-NH2 [^219FKDKPIKLRPRSIE^232]”, the Kd in test [2] came out at 0.73 ± 0.02 mM; in test [3], 1.09 ± 0.05 mM. Besides, the “fold lower dissociation constant (KD) of SH3C than SH3A” value in test [4] (SH3C versus SH3A) is 3 fold. For the same molecule, in test [4] (SH3C versus SH3B), the “fold lower dissociation constant (KD) of SH3C than SH3B” value amounted to 5 fold.

B1: CIN85-PRM1 peptide pS230 (residues 219-232) (peptide)
peptide: FKDKPIKLRPR[pS]IE
notes: CIN85, human, residues 219-232 with phosphoserine at S230; also called pS230 peptide; source: synthetic peptide
B1: the Kd in test [5] was 2350 µM.

B2: CIN85-PRM1 peptide, wild type (residues 219-232) (peptide)
peptide: FKDKPIKLRPRSIE
notes: CIN85, human, residues 219-232 of the linker between SH3B and SH3C, holding the proline-rich motif CIN85-PRM1; also called wild-type CIN85-PRM1 peptide; source: synthetic peptide
For B2, the figures for the Kd in test [5], in test [6] and in test [7] were 210 µM, 1090 µM and 730 µM, respectively.

B3: CIN85-PRM1 peptide R227A/R229A (residues 219-232) (peptide)
peptide: FKDKPIKLAPASIE
notes: CIN85, human, residues 219-232 with R227A and R229A; also called R227A/R229A mutant peptide; source: synthetic peptide
As for B3, the Kd in test [5] is more than 2450 µM.

B4: CIN85-PRM1 peptide S230D (residues 219-232) (peptide)
peptide: FKDKPIKLRPRDIE
notes: CIN85, human, residues 219-232 with the phosphomimetic S230D; also called S230D peptide; source: synthetic peptide
On to B4, for which the Kd in test [5] is 710 µM.

B5: CIN85-PRM1 peptide R229A (residues 219-232) (peptide)
peptide: FKDKPIKLRPASIE
notes: CIN85, human, residues 219-232 with R229A; also called R229A mutant peptide; source: synthetic peptide
On to B5, for which, in test [5], the Kd came out at 2450 µM.

B6: CIN85-PRM1 peptide R227A (residues 219-232) (peptide)
peptide: FKDKPIKLAPRSIE
notes: CIN85, human, residues 219-232 with R227A; also called R227A mutant peptide; source: synthetic peptide
Regarding B6, in test [5], the Kd came out at 750 µM.

B7: CIN85-PRM1 peptide S230A (residues 219-232) (peptide)
peptide: FKDKPIKLRPRAIE
notes: CIN85, human, residues 219-232 with S230A; also called S230A peptide; source: synthetic peptide
For B7, the Kd in test [5] worked out at 200 µM.
